Like-named read-outs stand apart in the source and are kept apart here.

The target of data set [1] is T1, renal dipeptidase (E.C.3.4.13.11) (Sus scrofa, UniProt P22412).
T1 construct: solubilized preparation of dipeptidase isolated from hog kidneys; from tissue; host or cells: hog kidney
T1 sequence (P22412 17-409): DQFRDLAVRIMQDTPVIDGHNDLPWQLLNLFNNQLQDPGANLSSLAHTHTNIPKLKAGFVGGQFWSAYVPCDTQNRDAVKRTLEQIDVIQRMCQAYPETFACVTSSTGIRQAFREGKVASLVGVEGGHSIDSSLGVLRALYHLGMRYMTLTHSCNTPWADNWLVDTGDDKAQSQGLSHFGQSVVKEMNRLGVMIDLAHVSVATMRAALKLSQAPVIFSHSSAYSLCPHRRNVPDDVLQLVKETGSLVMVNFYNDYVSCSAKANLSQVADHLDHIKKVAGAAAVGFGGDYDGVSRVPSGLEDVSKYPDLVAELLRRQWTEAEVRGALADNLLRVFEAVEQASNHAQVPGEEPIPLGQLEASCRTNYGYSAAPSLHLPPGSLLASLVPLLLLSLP
As to the kind of experiment: Inhibition of glycyldehydrophenylalanine (GDP) hydrolysis by renal dipeptidase in vitro. Type of data set: biochemical, pig (hog). Particulars: concentration producing 50% inhibition; substrate GDP 0.05 mM; pH 7.1; 37° C.; read-out: Ki. On the procedure: This measured the ability of compounds to inhibit hydrolysis of glycyldehydrophenylalanine (GDP) by a solubilized preparation of dipeptidase isolated from hog kidneys The procedure is as follows to a 1 ml. system containing 50 mM "MOPS" (3-(N-morpholino)propanesulfonic acid) buffer, pH 7.1, is added 5 μg of lyophilized enzyme, and the test compound at a final concentration of 0.1 mM. After a five minute incubation at 37° C., GDP is added to a final concentration of 0.05 mM. Incubation is continued for 10 minutes, at 37° C. and hydrolysis of GDP is measured by the change in optical density with time at 275 nm. Inhibition of the enzyme is gauged by comparison to a standard run containing no inhibitor and is expressed as the inhibitor binding constant, Ki.
A 1 ml. system of 50 mM "MOPS" buffer, pH 7.1, is used. To this is added 5 μg of the pig renal enzyme and an amount of the test compound to bring its final concentration to 0.1 mM. After a five minute incubation at 37° C., an amount of GDP is added to bring its final concentration to 0.05 mM. The system is again incubated for 10 minutes, at 37° C. Hydrolysis of GDP is measured by its change in optical density with time at 275 nm. Inhibition of the enzyme is gauged by comparison to a standard run containing no inhibitor and is presented as percent inhibition.

The subject of the next data set is Staphalococcus aureus. As to the kind of experiment: Systemic efficacy of thienamycin on the treatment of Staphylococcus aureus infections in the mouse. Type of data set: in vivo, Staphalococcus aureus (in mouse). To be noted: coadministered with thienamycin.
The target in the next data set is T2, renal dipeptidase (Sus scrofa, UniProt P22412).
T2 construct: GPI-anchored disulfide-linked homodimer
T2 sequence (P22412 17-384): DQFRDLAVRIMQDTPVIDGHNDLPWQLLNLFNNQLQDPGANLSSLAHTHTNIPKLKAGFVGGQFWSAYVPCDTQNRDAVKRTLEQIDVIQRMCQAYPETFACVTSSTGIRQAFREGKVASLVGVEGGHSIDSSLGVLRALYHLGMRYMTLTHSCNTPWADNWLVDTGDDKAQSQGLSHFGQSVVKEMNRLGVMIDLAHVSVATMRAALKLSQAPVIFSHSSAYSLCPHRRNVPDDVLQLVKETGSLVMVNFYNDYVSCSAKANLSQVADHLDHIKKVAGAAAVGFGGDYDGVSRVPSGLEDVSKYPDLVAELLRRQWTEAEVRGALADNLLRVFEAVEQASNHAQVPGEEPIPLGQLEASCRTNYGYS
As to the kind of experiment: Substrate affinity and maximal velocity of hydrolysis by renal dipeptidase. Type of data set: biochemical, hog. To be noted: GDP compared with thienamycin.

Data set [2] can be described thus: Urinary recovery of thienamycin in the mouse with co-administered inhibitor. Type of data set: in vivo. Particulars: urine. The procedure: In addition to this in vitro screen procedure, an in vivo sreen was followed to measure the test compound's ability to inhibit metabolism as reflected by increase in urinary recovery of thienamycin from the mouse. The procedure involves co-administration of the test compound by the intravenous or subcutaneous route at a dose-rate of 10-100 mg/kg, with 10 mg/kg thienamycin. Thienamycin recovery in the urine over a 4 hour period is then compared with its recovery in a control group to which test compound was not coadministered.
Urinary recovery of thienamycin was measured in all cases with the use of a cylinder or disc diffusion assay, conducted in a manner described in U.S. Pat. No. 3,950,357. This bioassay, with Staphylococcus aureus ATCC 6538 as the test organism, has a useful response range from 0.04 μg/ml to 3.0 μg/ml.
An in vivo assay on the mouse was conducted as follows: 20 g Charles River CD, female mice were injected subcutaneously with the chosen dose of the chemical inhibitor. About two minutes later, the dose of thienamycin was given intravenously. A control of thienamycin above was also conducted. The level of thienamycin in the urine as a % of dose was measured using a bioassay technique. The two test compound numbers are those from Table I. Compound 7 is Z-2-isovaleramido-2-butenoicacid; compound 10 is Z-2-cyclopropylcarboxamido-2-butenoic acid. […]

Take `C/C=C(\NC(=O)CC(C)C)C(=O)O` [Compound 7, Z-2-isovaleramido-2-butenoic acid]: the inhibition constant (Ki) in data set [1] is 6 µM. Also, in the data set on Staphalococcus aureus, the “enhancement of systemic antibacterial activity of thienamycin” value is “approximately three-fold”.

For `NCC(=O)NC(=Cc1ccccc1)C(=O)O` [GDP, glycyldehydrophenylalanine], the “maximal velocity of hydrolysis by renal dipeptidase” value at renal dipeptidase is on record as “much higher maximal velocity of hydrolysis”.

Turning to `C[C@@H](O)[C@H]1C(=O)N2C(C(=O)O)=C(SCCN)C[C@H]12` [Thienamycin], the dose excreted at 4 h was 30 ± 5% in data set [2] (Table III, THM alone 10 mg/kg IV or SC, read-out: Urinary Recovery of THM, %) and 30 ± 5% in data set [2] (Table IV, THM alone 10 mg/kg SC, read-out: Urinary Recovery THM, %).

One may read the Ki as a dissociation constant, usually derived from enzyme kinetics or from competition with a known ligand.
